Columns and labels:
Calu-6 cells = experiment: Payload cellular killing in Calu-6 cancer line; format: cell-based; settings: 6 days, Cell Titer-Glo
Protocol: Calu-6 (ATCC, HTB-56). […] The base medium for Calu-6 is Eagle's Minimum Essential Medium (ATCC, 30-2003). […] The cell line was grown in a humidified 5% CO2 atmosphere at 37 °C, and was regularly tested for the presence of mycoplasma with MycoAlert™ PLUS Mycoplasma Detection Kit (Lonza, LT07-710).
(§1) Payload cellular killing was assessed in A375 and Calu-6 cancer lines. Cells were seeded (A375 (1E3/well) or Calu-6 (2E3/well)) into a 96-well plate (Greiner: 655090), at 100 μl/well and incubated at 37 °C, 5% CO2, overnight. Fresh growth medium was added containing varying concentrations of compounds, 50 μl/well, and incubated at 37 °C, 5% CO2, for 6 days. The cell viability was detected by Cell Titer-Glo (Promega, G7573). 70 μL of CellTiter-Glo® Reagent was added to each well. The plates were allowed to incubate at room temperature for 10 minutes to stabilize the luminescent signal. The plates were analyzed with a microplate reader.

A375 cells = experiment: Payload cellular killing in A375 cancer line; format: cell-based, human; settings: Cell Titer-Glo
Protocol: A375 (ATCC, CRL-1619). […] The base medium for A375 is DMEM, high glucose, GlutaMAX™ Supplement (Gibco, 10566024). […] The cell line was grown in a humidified 5% CO2 atmosphere at 37 °C, and was regularly tested for the presence of mycoplasma with MycoAlert™ PLUS Mycoplasma Detection Kit (Lonza, LT07-710).
as §1

SMILES | Emax (%) (Calu-6 cells) | EC50 (Calu-6 cells; Homo sapiens) [nM] | Emax (%) (A375 cells; 6 days) | Emax (Calu-6 cells; Homo sapiens) [%] | EC50 (A375 cells; Homo sapiens, A-375, 6 days) [nM] | Emax (A375 cells; Homo sapiens, A-375, 6 days) [%] | EC50 (Calu-6 cells) [nM] | EC50 (A375 cells; 6 days) [nM]
CC[C@@]1(O)C(=O)OCc2c1cc1n(c2=O)Cc2c-1nc1cc(F)c(C)c3c1c2C(CCCO)CC3 (stereo partly drawn) [P3, (9S)-9-ethyl-5-fluoro-9-hydroxy-1-(3-hydroxypropyl)-4-methyl-1,2,3,9,12,15-hexahydro-10H,13H-benzo[de]pyrano[3′,4′:6,7]indolizino[1,2-b]quinoline-10,13-dione] | 99.2 | 0.2 | 100.0 |  |  |  |  | 
CC[C@@]1(O)C(=O)OCc2c1cc1n(c2=O)Cc2c-1nc1cc(F)c(C)c3c1c2C(CN(C)CCO)CC3 (stereo partly drawn) [P11, (9S)-9-ethyl-5-fluoro-9-hydroxy-1-(((2-hydroxyethyl)(methyl)amino)methyl)-4-methyl-1,2,3,9,12,15-hexahydro-10H,13H-benzo[de]pyrano[3′,4′:6,7]indolizino[1,2-b]quinoline-10,13-dione] |  |  |  | 98 | 0.8 |  |  | 
CC[C@@]1(O)C(=O)OCc2c1cc1n(c2=O)Cc2c-1nc1cc(F)c(C)c3c1c2C(CCO)CC3 (stereo partly drawn) [P5, (9S)-9-ethyl-5-fluoro-9-hydroxy-1-(2-hydroxyethyl)-4-methyl-1,2,3,9,12,15-hexahydro-10H,13H-benzo[de]pyrano[3′,4′:6,7]indolizino[1,2-b]quinoline-10,13-dione] | 98.1 |  | 100.0 |  |  |  |  | 
CC[C@@]1(O)C(=O)OCc2c1cc1n(c2=O)Cc2c-1nc1cc3c(c4c1c2[C@@H](NC(=O)OCCO)CC4)OCO3 [P10, 2-hydroxyethyl ((1S,10S)-10-ethyl-10-hydroxy-11,14-dioxo-2,3,10,11,14,16-hexahydro-1H,13H-benzo[de][1,3]dioxolo[4,5-g]pyrano[3′,4′:6,7]indolizino[1,2-b]quinolin-1-yl)carbamate] |  | 0.7 |  | 97.4 | 2.2 | 100 |  | 
CC[C@@]1(O)C(=O)OCc2c1cc1n(c2=O)Cc2c-1nc1cc3c(c4c1c2[C@@H](NC(=O)C(C)(F)CO)CC4)OCO3 (stereo partly drawn) [P9, N-((1S,10S)-10-ethyl-10-hydroxy-11,14-dioxo-2,3,10,11,14,16-hexahydro-1H,13H-benzo[de][1,3]dioxolo[4,5-g]pyrano[3′,4′:67]indolizino[1,2-b]quinolin-1-yl)-2-fluoro-3-hydroxy-2-methylpropanamide] | 98.3 |  | 100.0 |  |  |  | 0.9 | 2.1

Source: patent US20260364190A1, “ANTIBODY DRUG CONJUGATE PLATFORMS” (BEONE MEDICINES I GMBH, priority 2023, published 2026)
